These results are taken from article PMC6009911, “Inhibition of human cytochromes P450 2A6 and 2A13 by flavonoids, acetylenic thiophenes and sesquiterpene lactones from Pluchea indica and Vernonia cinerea” (Journal of Enzyme Inhibition and Medicinal Chemistry, 2017).

Structures are written as SMILES. Read-outs that look alike come from different tables or passages of the source. Marks after values point to notes of the source that are not given here.

For data set [1], the target named is T1, CYP2A13 (Homo sapiens, UniProt Q16696).
T1 construct: made in house
T1 sequence (Q16696 1-494): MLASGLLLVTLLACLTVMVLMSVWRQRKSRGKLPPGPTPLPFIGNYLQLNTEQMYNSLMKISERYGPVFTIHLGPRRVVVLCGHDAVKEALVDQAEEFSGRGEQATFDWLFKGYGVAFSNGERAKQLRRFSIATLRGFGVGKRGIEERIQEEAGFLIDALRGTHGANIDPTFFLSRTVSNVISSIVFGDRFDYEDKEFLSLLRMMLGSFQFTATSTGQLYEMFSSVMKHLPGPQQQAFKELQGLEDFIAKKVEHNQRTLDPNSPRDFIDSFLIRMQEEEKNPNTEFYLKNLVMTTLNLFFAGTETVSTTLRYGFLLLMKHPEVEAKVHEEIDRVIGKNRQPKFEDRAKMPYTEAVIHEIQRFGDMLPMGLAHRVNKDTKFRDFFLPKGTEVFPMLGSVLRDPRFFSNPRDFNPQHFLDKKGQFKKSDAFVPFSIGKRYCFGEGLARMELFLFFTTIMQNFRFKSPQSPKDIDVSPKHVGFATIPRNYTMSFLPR
Nature of the data set: Inhibition of CYP2A13-mediated nicotine metabolism. It is filed as biochemical. The settings on record: compound at IC50 value; nicotine 50 μM; 30 min; Supplemental Figure S2. As for the experimental part: mixture with nicotine substrate (a final concentration of 50 μM) prior to initiation of each reaction with 50 μM NADPH at room temperature. Each reaction was terminated by addition of ice-cold acetronitrile at 30 min incubation and 50 pmol 7-hydroxycoumarin as internal standard was added. The reaction was centrifuged (12,000 rpm, 10 min, 4 °C) and 20 μl of each sample was analyzed on symmetry RP-C18 column (3.9×150 mm). Gradient condition was isocratic of 12% ACN: 2-propanol (7:3) in 10 mM potassium phosphate buffer (pH 7.4) at flow rate of 1 ml/min. The nicotine peak area in each reaction was compared with that of time zero. The enzyme activity was determined as percent substrate consumption over 30 min. The reactions were […]
(1 picture or pasted object on this page, not shown here)

Data set [2] concerns the target T1, CYP2A13. Nature of the data set: Mechanism-based (time- and NADPH-dependent) inactivation of CYP2A13. It is filed as biochemical. The settings on record: pre-incubation 0-30 min with NADPH. As for the experimental part:
(§1) MBI requires NADPH and time to generate reactive intermediate as inhibitor and ultimately inactivates the enzyme. MBI was evaluated by pre-incubation with each test inhibitor in the reaction at different time periods (0, 10, 20 and 30 min) in the presence of NADPH for time-dependent assay, as described. The apparent inactivation constants, KI and Kinact, were obtained from double reciprocal plots of kobs versus inhibitor concentrations by linear regression analysis on GraphPad Prism 5. Methoxsalen was used as a control mechanism-based inhibitor for time- and NADPH-dependent inhibition assays.

Data set [3] concerns the target T2, CYP2A6 (Homo sapiens, UniProt P11509).
T2 sequence (P11509 1-494): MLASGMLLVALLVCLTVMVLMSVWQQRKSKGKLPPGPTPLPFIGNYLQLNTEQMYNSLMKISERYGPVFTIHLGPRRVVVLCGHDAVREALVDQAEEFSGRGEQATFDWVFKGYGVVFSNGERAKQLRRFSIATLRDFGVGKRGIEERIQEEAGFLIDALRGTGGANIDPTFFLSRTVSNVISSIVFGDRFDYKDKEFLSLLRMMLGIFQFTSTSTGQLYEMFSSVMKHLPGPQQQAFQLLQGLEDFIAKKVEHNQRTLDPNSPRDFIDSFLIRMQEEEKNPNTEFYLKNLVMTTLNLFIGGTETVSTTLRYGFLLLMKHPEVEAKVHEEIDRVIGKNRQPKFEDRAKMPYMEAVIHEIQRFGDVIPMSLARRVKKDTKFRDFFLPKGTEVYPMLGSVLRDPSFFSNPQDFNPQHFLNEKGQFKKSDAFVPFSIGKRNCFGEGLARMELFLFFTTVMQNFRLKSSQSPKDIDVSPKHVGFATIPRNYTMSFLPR
The note with it: ref Prasopthum et al., 2015, cited from earlier work.

The target of data set [4] is T2, CYP2A6. Details: made in house. The settings on record: ref Prasopthum et al., 2015, cited from earlier work; for Ki: coumarin 0–40 µM.
Data set [5] has as its target T1, CYP2A13. Nature of the data set: Effects of trapping agents and dialysis on inactivation of CYP2A13. The note with it: CYP2A13 inhibition reaction mixture, probe coumarin, compound 10 µM. Type of data set: biochemical. The method, then: as §1
To explore whether inactivation of CYP2As by thiophenes 9–11 and of CYP2A13 by hirsutinolides 5-8 could be reversed, the removal of reversible inhibitory compounds by dialysis and addition of trapping agents (GSH, semicarbazide, catalase or potassium ferricyanide) in the inhibition reaction mixture were performed. […] Similarly, mechanism-based inactivation of both CYP2A6 and CYP2A13 by thiophenes 9–11 could not be reversed (Table 3).

The target of data set [6] is T2, CYP2A6. Details: made in house; method as in PMID 25857233. The note with it: cited from earlier work.
Data set [7] concerns the target T1, CYP2A13. As to the kind of experiment: Inhibition of CYP2A13-mediated coumarin 7-hydroxylation, enzymatic reconstitution assay. It is filed as biochemical. The note with it: for Ki: coumarin 0–40 µM. The method, then: Inhibitory effect of plant extracts, fractions, subfractions and constituents was determined by inhibition assay on CYP2A6- and CYP2A13-mediated coumarin 7-hydroxylation. The recombinant human CYP2A6, CYP2A13 and rat NADPH-dependent cytochrome P450 oxidoreductase (CYPOR) proteins were expressed, purified, according to the methods previously described. […] Rate of 7-hydroxycoumarin product formation was measured on spectrofluorometer (Shimadzu, Kyoto, Japan) at λex = 355 nm, λem = 460 nm. Inhibition effects were determined by incubation with extracts, fractions or purified compounds with coumarin substrate in the reaction mixture and calculated as per cent relative inhibition compared with vehicle control reaction[20] and IC50 values were calculated using GraphPad Prism 5 (GraphPad Software Inc., La Jolla, CA).
as §1

The mark [8] stands for this setting: 10-min pre-incubation in the presence of NADPH, read-out: IC50 CYP2A6 Pre-incubation.
Where [9] appears, read: coincubation, coumarin 2 µM, read-out: IC50 CYP2A6 Coincubation.
The mark [10] stands for this setting: 10-min pre-incubation in the presence of NADPH, read-out: IC50 CYP2A13 Pre-incubation.
Where [11] appears, read: coincubation, coumarin 2 µM, read-out: IC50 CYP2A13 Coincubation.

For orientation: kinact means the rate constant of inactivation at saturating inhibitor. Usually IC50 stands for the concentration that gives 50% inhibition. As a reminder, the Ki is the equilibrium dissociation constant of an inhibitor or competing ligand from its target.

`C/C=C(\C)C(=O)OC1CC(C)C2(O)CCC(C)(/C=C3/OC(=O)C(COC(C)=O)=C31)O2` (stereo not drawn) [Hirsutinolide 6, 8α-tigloyloxyhirsutinolide-13-O-acetate]: the “inhibition of CYP2A13-mediated nicotine metabolism” value at CYP2A13 [1] is reported as “showed inhibition”. In addition, the kinact on CYP2A13 [2] is 0.001 s⁻¹. The KI (inactivation) on CYP2A13 [2] (read-out: CYP2A13 KI (inactivation constant)) is 3.6 ± 1.05 µM; at CYP2A6 [3] (read-out: CYP2A6 KI (inactivation constant)) it was 15.4 ± 1.8 µM. Moreover, the “CYP2A6 Kinact” value at CYP2A6 [3] was 0.03 ± 0.01^b. Besides, the IC50 is 20.8 ± 1.1 µM on CYP2A6 [4] (setting [8]), 37.8 ± 3.5 µM at CYP2A6 [4] (setting [9]), 7.66 ± 0.98 µM at CYP2A13 [7] (setting [10]) and 20.9 ± 1.46 µM on CYP2A13 [7] (setting [11]). For the same compound, the Ki at CYP2A6 [4] is 30.6 ± 1.5 µM; at CYP2A13 [7], 7.97 ± 0.78 µM. For the same compound, the “CYP2A6 Mode of inhibition” value on CYP2A6 [4] is “Mixed type^b”. The activity at 10 µM worked out at 25.9 ± 1.87% at CYP2A13 [5] (read-out: Per cent remaining activity, 70 μM K3Fe(CN)6); 33.6 ± 4.8% at CYP2A13 [5] (read-out: Per cent remaining activity, 2 mM GSH); 25 ± 3.81% at CYP2A13 [5] (read-out: Per cent remaining activity, 5 mM semicarbazide); 26.6 ± 3.86% at CYP2A13 [5] (read-out: Per cent remaining activity, 2000 U catalase); 22.8 ± 1.13% on CYP2A13 [5] (read-out: Per cent remaining activity, Dialysis (+) NADPH); 85.3 ± 4.98% on CYP2A13 [5] (read-out: Per cent remaining activity, Dialysis (−) NADPH). For the same compound, on CYP2A13 [5] (read-out: Per cent remaining activity, Pre-incubation), the activity at 10 µM came out at 28.4 ± 2.92%. Also, on CYP2A6 [6], the “inhibition of CYP2A6-mediated nicotine metabolism” value was “showed inhibition”. The “CYP2A13 Mode of inhibition” value at CYP2A13 [7] was “Mixed type”.

In the case of `O=c1cc(-c2ccc(O)c(O)c2)oc2cc(O)cc(O)c12` [Luteolin 2, luteolin], the concentration for half-maximal inhibition (IC50) at CYP2A6 [4] (setting [8]) was 1.26 ± 0.07 µM; at CYP2A6 [4] (setting [9]) it was 1.38 ± 0.18 µM; at CYP2A13 [7] (setting [10]), 0.17 ± 0.01 µM; on CYP2A13 [7] (setting [11]), 0.18 ± 0.02 µM. The Ki is 0.8 ± 0.06 µM on CYP2A6 [4] and 0.07 ± 0.01 µM at CYP2A13 [7]. For the same compound, the “CYP2A6 Mode of inhibition” value at CYP2A6 [4] is “Competitive^b”. Moreover, the “inhibition of CYP2A6-mediated nicotine metabolism” value at CYP2A6 [6] was “showed inhibition”.
